The subject of test [1] is Myzus persicae. Briefly: Myzus persicae (green peach aphid) pea seedling root uptake test. The following applies: 144 h, read-out: control of Myzus persicae.
In another test the test system is Tetranychus urticae. As to the kind of experiment: Tetranychus urticae (two-spotted spider mite) bean leaf disc spray test. The following applies: foliar, 192 h, read-out: control of Tetranychus urticae.
Test [2] relates to Myzus persicae. As to the kind of experiment: Myzus persicae (green peach aphid) sunflower leaf disc spray test. The following applies: foliar, 144 h, read-out: control of Myzus persicae.

The record followed here is patent US20100048699A1, “CHEMICAL COMPOUNDS” (SYNGENTA CROP PROTECTION, INC., priority 2006, published 2010).

As to `O=C(/C=C/c1ccccc1)OCCNC(=S)NC1CCc2c(F)cccc21` (stereo not shown) [Compound 11.006], the pest or weed control at 24 ppm with Myzus persicae [1] is not below 80%. Also, the pest or weed control at 200 ppm in the test on Tetranychus urticae and in the test on Myzus persicae [2] was not below 80% in each case.
With `O=C(Cc1ccccc1F)OCCNC(=S)NC1CCc2c(F)cccc21` (stereo not shown) [Compound 11.062], the pest or weed control at 24 ppm in the test with Myzus persicae [1] is not below 80%. The pest or weed control at 200 ppm with Tetranychus urticae and in the test with Myzus persicae [2] was not below 80% each time.
`O=C(OCCNC(=S)NC1CCc2c(F)cccc21)c1ccc(F)c(C(F)(F)F)c1` (stereo not shown) [Compound 11.035]: in the test with Myzus persicae [1], the pest or weed control at 24 ppm is not below 80%. Moreover, the pest or weed control at 200 ppm with Tetranychus urticae and with Myzus persicae [2] was not below 80% each time.
Regarding `O=C(OCCNC(=S)NC1CCc2c(F)cccc21)c1ccccc1I` (stereo not shown) [Compound 11.054], in the test with Myzus persicae [1], the pest or weed control at 24 ppm was not below 80%. Further, the pest or weed control at 200 ppm with Myzus persicae [2] was not below 80%.
Take `Cc1ccc(-n2c(=O)cc(C(F)(F)F)n(C)c2=O)cc1C(=O)OCCNC(=S)NC1CCc2c(F)cccc21` (stereo not shown) [Compound 11.043]: the pest or weed control at 200 ppm in the test on Tetranychus urticae and in the test on Myzus persicae [2] was not below 80% throughout.
`O=C(OCc1ccccc1C(=O)OCCNC(=S)NC1CCc2c(F)cccc21)c1ccccc1` (stereo not shown) [Compound 11.041]: the pest or weed control at 200 ppm in the test with Tetranychus urticae and with Myzus persicae [2] was not below 80% throughout.
`O=C(OCCNC(=S)NC1CCc2c(F)cccc21)c1cncc(Br)c1` (stereo not shown) [Compound 11.049]: in the test with Myzus persicae [1], the pest or weed control at 24 ppm is not below 80%. Moreover, the pest or weed control at 200 ppm in the test with Myzus persicae [2] is not below 80%.
For the compound `O=C(OCCNC(=S)NC1CCc2c(F)cccc21)N(c1ccccc1)c1ccccc1` (stereo not shown) [Compound 11.039], the pest or weed control at 200 ppm with Myzus persicae [2] is not below 80%.
As to `Cc1oc(C(C)(C)C)cc1C(=O)OCCNC(=S)NC1CCc2c(F)cccc21` (stereo not shown) [Compound 11.045], the pest or weed control at 24 ppm with Myzus persicae [1] is not below 80%. Besides, the pest or weed control at 200 ppm in the test on Myzus persicae [2] is not below 80%.
Turning to `O=C(OCCNC(=S)NC1CCc2c(F)cccc21)c1ccc(F)cc1C(F)(F)F` (stereo not shown) [Compound 11.034], the pest or weed control at 24 ppm in the test with Myzus persicae [1] is not below 80%. Besides, the pest or weed control at 200 ppm in the test with Myzus persicae [2] was not below 80%.
Take `O=C(OCCNC(=S)NC1CCc2c(F)cccc21)c1cc(Cl)sc1Cl` (stereo not shown) [Compound 11.068]: the pest or weed control at 200 ppm in the test on Tetranychus urticae and in the test with Myzus persicae [2] was not below 80% throughout.
Consider `Cc1nn(-c2ccccc2)nc1C(=O)OCCNC(=S)NC1CCc2c(F)cccc21` (stereo not shown) [Compound 11.072], for which the pest or weed control at 200 ppm in the test with Tetranychus urticae and in the test on Myzus persicae [2] was not below 80% throughout.
Turning to `O=C(OCCNC(=S)NC1CCc2c(F)cccc21)c1cc(C(F)(F)F)ccc1F` (stereo not shown) [Compound 11.052], the pest or weed control at 200 ppm in the test with Tetranychus urticae and in the test on Myzus persicae [2] was not below 80% each time.
On to `O=C(OCCNC(=S)NC1CCc2c(F)cccc21)N1CCCCC1` (stereo not shown) [Compound 11.001], for which the pest or weed control at 200 ppm in the test on Tetranychus urticae and in the test with Myzus persicae [2] was not below 80% in each case.
With `CN(C)c1ccc(C(=O)OCCNC(=S)NC2CCc3c(F)cccc32)cc1` (stereo not shown) [Compound 11.015], in the test on Myzus persicae [2], the pest or weed control at 200 ppm was not below 80%.
Regarding `Cc1ccsc1C(=O)OCCNC(=S)NC1CCc2c(F)cccc21` (stereo not shown) [Compound 11.067], the pest or weed control at 200 ppm in the test with Tetranychus urticae and in the test with Myzus persicae [2] was not below 80% in each case.
For the compound `O=C(OCCNC(=S)NC1CCc2c(F)cccc21)c1ccc(SC(F)(F)C(F)(F)F)cc1` (stereo not shown) [Compound 11.064], the pest or weed control at 200 ppm with Tetranychus urticae and with Myzus persicae [2] was not below 80% throughout.
`O=C(/C=C/c1ccc([N+](=O)[O-])cc1)OCCNC(=S)NC1CCc2c(F)cccc21` (stereo not shown) [Compound 11.027]: the pest or weed control at 200 ppm in the test on Myzus persicae [2] is not below 80%.
Turning to `O=C(OCCNC(=S)NC1CCc2c(F)cccc21)c1cccc2c1OC(F)(F)O2` (stereo not shown) [Compound 11.031], the pest or weed control at 24 ppm in the test with Myzus persicae [1] is not below 80%. In addition, the pest or weed control at 200 ppm with Myzus persicae [2] was not below 80%.
With `Cc1c(S(=O)(=O)c2ccc(Cl)cc2)csc1C(=O)OCCNC(=S)NC1CCc2c(F)cccc21` (stereo not shown) [Compound 11.046], the pest or weed control at 200 ppm in the test on Tetranychus urticae and with Myzus persicae [2] was not below 80% each time.
